# Measurements as given in patent US10113114B2, “Apparatus and method for coating particulate material” (BASF Corporation, priority 2013, dated 2018).
# System: red imported fire ant (Solenopsis invicta) workers
# Conditions: all rates tested (0.5 to 3 X label rate)
# Excerpt: Testing with red imported fire ant (Solenopsis invicta, RIFA), Argentine ant (Linepthema humile), and odorous house ant (OHA) workers. Ten inch plastic arenas (inside walls coated with Fluon® to prevent escape) were provided a layer of moistened play sand. A band of mulch was placed across the arena near one side. Between the closest side and the mulch, a micro-centrifuge tube with a universal ant diet was placed. In the larger open area of the arena was placed a water vial and a small weigh boat with either corn grit+soybean oil (RIFA) or 20% honey water (Argentine ant and OHA). Approximately 100 ants were placed in each arena. Mortality was evaluated at 6 or 7 days.
compound,measurement,value
CN/C(=N/CC1CCOC1)N[N+](=O)[O-] (stereo not shown) [dinotefuran],efficacy of the insecticide on mulch (in words),effective at all rates tested
